# Assays:
# [1] = Apparent oral clearance in ICR-CD1 mouse plasma at 40 mg/kg, po; assay type: ADME, organism-based; details: in vivo
# [2] = Tmax in ICR-CD1 mouse liver at 40 mg/kg, po; assay type: ADME, organism-based
# [3] = tested on: Plasmodium falciparum; experiment: Anti-plasmodial activity against Plasmodium falciparum 3D7 infected in erythrocytes assessed as parasite reduction ratio at 1.188 uM measured 22 to 28 days; assay type: functional; details: time 22-28 day
# [4] = tested on: MDR1 (human); experiment: Apparent permeability across basolateral to apical side in MDCK transfected with human MDR1 cells incubated for 1 hr by LC-MS analysis; details: dog, MDCK-MDR1
# [5] = Apparent oral clearance in ICR-CD1 mouse liver at 40 mg/kg, po; assay type: ADME, organism-based
# [6] = tested on: MDR1 (human); experiment: Apparent permeability across apical to basolateral side in MDCK transfected with human MDR1 cells incubated for 1 hr by LC-MS analysis; details: dog, MDCK-MDR1
# [7] = tested on: Plasmodium berghei; experiment: Anti-malarial activity against Luciferase-expressing Plasmodium berghei sporozoites inoculated in Albino C57BL/6 mouse malaria model assessed as reduction in parasites in liver at 40 mg/kg, po by measuring bioluminescence signal measured after 48 hrs relative to control; assay type: functional; set-up: scale not given: the % may be the effect or the level left
# [8] = tested on: Plasmodium berghei; experiment: Anti-malarial activity against Luciferase-expressing Plasmodium berghei sporozoites inoculated in po dosed Albino C57BL/6 mouse malaria model assessed as elimination of parasites in blood by measuring bioluminescence signal measured after 72 hrs; assay type: functional, organism-based
# [9] = Toxicity in CF1 mouse infected with erythrocytic Plasmodium yoelii MRA-428 assessed as adverse event at 10 to 80 mg/kg, po once daily for 4 days measured on day 28 day; assay type: organism-based; details: in vivo, 96 h, dose 10-80 mg/kg, time 4 day
# [10] = Chemical stability of the compound assessed as half life in PBS buffer at pH 6.6 to 9; assay type: physicochemical
# [11] = tested on: Plasmodium yoelii; experiment: Antimalarial activity against erythrocytic Plasmodium yoelii MRA-428 infected in CF1 mouse assessed as cured mouse at 80 mg/kg, po once daily for 4 days measured on day 28 day; assay type: functional, organism-based; details: time 4.0 day
# [12] = in vitro; details: human, liver microsomes
# [13] = MRTlast in ICR-CD1 mouse liver at 40 mg/kg, po; assay type: ADME, organism-based
# [14] = tested on: Plasmodium falciparum; experiment: Anti-plasmodial activity against Plasmodium falciparum 3D7 infected in erythrocytes assessed as Lag phase (time to observe the maximal killing effect of the drug) at 1.188 uM; assay type: functional
# [15] = AUClast in ICR-CD1 mouse liver at 40 mg/kg, po; assay type: ADME, organism-based
# [16] = AUCinf in ICR-CD1 mouse plasma at 40 mg/kg, po; assay type: ADME, organism-based; details: in vivo
# [17] = tested on: Plasmodium yoelii; experiment: Antimalarial activity against erythrocytic Plasmodium yoelii MRA-428 infected in CF1 mouse assessed as cured mouse at 25 mg/kg, po once daily for 4 days measured on day 28 day; assay type: functional, organism-based; details: time 4.0 day
# [18] = tested on: Plasmodium falciparum; experiment: Anti-plasmodial activity against ART-resistant Plasmodium falciparum DR1 assessed as growth inhibition measured after 72 hrs by Malaria SYBR Green I-based Fluorescence (MSF) assay; assay type: functional, organism-based; details: DR1, 72 h
# [19] = tested on: Plasmodium yoelii; experiment: Antimalarial activity against erythrocytic Plasmodium yoelii MRA-428 infected in CF1 mouse assessed as reduction in parasitemia at 10 mg/kg, po once daily for 4 days measured on day 5; assay type: functional; set-up: scale not given: the % may be the effect or the level left; details: time 4 day
# [20] = in vitro; details: mouse, liver microsomes
# [21] = Chemical stability of the compound assessed as half life in acetate buffer at pH 4.5; assay type: physicochemical
# [22] = AUCextrap (extrapolated from the last observed time point) in ICR-CD1 mouse liver at 40 mg/kg, po; assay type: ADME, organism-based; details: in vivo
# [23] = Tmax in ICR-CD1 mouse plasma at 40 mg/kg, po; assay type: ADME, organism-based
# [24] = tested on: Plasmodium falciparum; experiment: Antiplasmodial activity against asexual blood-stage Plasmodium falciparum Tm90-C2B using 2% haematocrit and 0.2% parasitemia assessed as reduction in fluorescence measured after 72 hrs by Malaria SYBR Green I-based Fluorescence (MSF) assay; assay type: functional, organism-based
# [25] = Half life in ICR-CD1 mouse liver at 40 mg/kg, po; assay type: ADME, organism-based
# [26] = AUCextrap (extrapolated from the last observed time point) in ICR-CD1 mouse plasma at 40 mg/kg, po; assay type: ADME, organism-based; details: in vivo
# [27] = tested on: Plasmodium berghei; experiment: Anti-malarial activity against Luciferase-expressing Plasmodium berghei sporozoites inoculated in Albino C57BL/6 mouse malaria model assessed as reduction in parasites in liver at 40 mg/kg, po by measuring bioluminescence signal measured after 72 hrs relative to control; assay type: functional; set-up: scale not given: the % may be the effect or the level left
# [28] = tested on: Plasmodium berghei; experiment: Anti-malarial activity against Luciferase-expressing Plasmodium berghei sporozoites inoculated in Albino C57BL/6 mouse malaria model assessed as increase in survival time at 40 mg/kg, po relative to control; assay type: functional
# [29] = Toxicity in Albino C57BL/6 mouse inoculated with Luciferase-expressing Plasmodium berghei sporozoites at 40 mg/kg, po; assay type: organism-based; details: in vivo
# [30] = MRTlast in ICR-CD1 mouse plasma at 40 mg/kg, po; assay type: ADME, organism-based
# [31] = tested on: Plasmodium falciparum; experiment: microbe, parasite or virus in culture; details: Dd2, 72 h
# Description: Antiplasmodial activity against asexual blood-stage Plasmodium falciparum Dd2 using 2% haematocrit and 0.2% parasitemia assessed as reduction in fluorescence measured after 72 hrs by Malaria SYBR Green I-based Fluorescence (MSF) assay
# [32] = AUClast in ICR-CD1 mouse plasma at 40 mg/kg, po; assay type: ADME, organism-based
# [33] = Mutagenicity in Salmonella typhimurium TA98 with S9 fraction at 10 uM by Ames test; assay type: toxicity, subcellular; details: salmonella enterica subsp. enterica serovar typhimurium, s9, 10 µM
# [34] = AUCinf in ICR-CD1 mouse liver at 40 mg/kg, po; assay type: ADME, organism-based
# [35] = tested on: Plasmodium yoelii; experiment: Antimalarial activity against erythrocytic Plasmodium yoelii MRA-428 infected in CF1 mouse assessed as reduction in parasitemia at 25 mg/kg, po once daily for 4 days measured on day 5; assay type: functional; set-up: scale not given: the % may be the effect or the level left; details: time 4 day
# [36] = tested on: Plasmodium berghei; experiment: Anti-malarial activity against Luciferase-expressing Plasmodium berghei sporozoites inoculated in po dosed Albino C57BL/6 mouse malaria model assessed as elimination of parasites in liver by measuring bioluminescence signal measured after 48 hrs; assay type: functional, organism-based
# [37] = Cmax in ICR-CD1 mouse plasma at 40 mg/kg, po; assay type: ADME, organism-based
# [38] = Half life in ICR-CD1 mouse plasma at 40 mg/kg, po; assay type: ADME, organism-based
# [39] = tested on: Plasmodium falciparum; experiment: Anti-plasmodial activity against Plasmodium falciparum 3D7 infected in erythrocytes assessed as parasite clearance time at 1.188 uM measured 22 to 28 days relative to initial population; assay type: functional; details: time 22-28 day
# [40] = tested on: Plasmodium falciparum; experiment: Anti-plasmodial activity against ART-resistant Plasmodium falciparum DR4 assessed as growth inhibition measured after 72 hrs by Malaria SYBR Green I-based Fluorescence (MSF) assay; assay type: functional, organism-based; details: DR4, 72 h
# [41] = Metabolic stability in human liver microsomes assessed as half life measured up to 60 mins by LC/MS analysis; assay type: ADME, Microsome
# [42] = tested on: Plasmodium yoelii; experiment: Antimalarial activity against erythrocytic Plasmodium yoelii MRA-428 infected in CF1 mouse assessed as reduction in parasitemia at 80 mg/kg, po once daily for 4 days measured on day 5; assay type: functional; set-up: scale not given: the % may be the effect or the level left; details: time 4 day
# [43] = tested on: Plasmodium falciparum; experiment: Anti-plasmodial activity against Plasmodium falciparum Dd2 assessed as growth inhibition measured after 72 hrs by Malaria SYBR Green I-based Fluorescence (MSF) assay; assay type: functional, organism-based; details: Dd2, 72 h
# [44] = tested on: HepG2; experiment: Cytotoxicity against human HepG2 cells assessed as cell viability measured after 48 hrs by MTT assay; assay type: toxicity, cell-based; details: hepg2
# [45] = Metabolic stability in mouse liver microsomes assessed as half life measured up to 60 mins by LC/MS analysis; assay type: ADME, Microsome
# [46] = molecular target: Voltage-gated inwardly rectifying potassium channel KCNH2 (Homo sapiens, UniProt Q12809); experiment: Inhibition of hERG expressed in CHO cells by Whole cell patch clamp assay; assay type: toxicity, cell-based
# [47] = Chemical stability of the compound assessed as half life in PBS buffer at pH 7.4; assay type: physicochemical
# [48] = Mutagenicity in Salmonella typhimurium TA98 at 10 uM by Ames test; assay type: toxicity; details: salmonella enterica subsp. enterica serovar typhimurium
# Voltage-gated inwardly rectifying potassium channel KCNH2, sequence (Q12809 whole entry): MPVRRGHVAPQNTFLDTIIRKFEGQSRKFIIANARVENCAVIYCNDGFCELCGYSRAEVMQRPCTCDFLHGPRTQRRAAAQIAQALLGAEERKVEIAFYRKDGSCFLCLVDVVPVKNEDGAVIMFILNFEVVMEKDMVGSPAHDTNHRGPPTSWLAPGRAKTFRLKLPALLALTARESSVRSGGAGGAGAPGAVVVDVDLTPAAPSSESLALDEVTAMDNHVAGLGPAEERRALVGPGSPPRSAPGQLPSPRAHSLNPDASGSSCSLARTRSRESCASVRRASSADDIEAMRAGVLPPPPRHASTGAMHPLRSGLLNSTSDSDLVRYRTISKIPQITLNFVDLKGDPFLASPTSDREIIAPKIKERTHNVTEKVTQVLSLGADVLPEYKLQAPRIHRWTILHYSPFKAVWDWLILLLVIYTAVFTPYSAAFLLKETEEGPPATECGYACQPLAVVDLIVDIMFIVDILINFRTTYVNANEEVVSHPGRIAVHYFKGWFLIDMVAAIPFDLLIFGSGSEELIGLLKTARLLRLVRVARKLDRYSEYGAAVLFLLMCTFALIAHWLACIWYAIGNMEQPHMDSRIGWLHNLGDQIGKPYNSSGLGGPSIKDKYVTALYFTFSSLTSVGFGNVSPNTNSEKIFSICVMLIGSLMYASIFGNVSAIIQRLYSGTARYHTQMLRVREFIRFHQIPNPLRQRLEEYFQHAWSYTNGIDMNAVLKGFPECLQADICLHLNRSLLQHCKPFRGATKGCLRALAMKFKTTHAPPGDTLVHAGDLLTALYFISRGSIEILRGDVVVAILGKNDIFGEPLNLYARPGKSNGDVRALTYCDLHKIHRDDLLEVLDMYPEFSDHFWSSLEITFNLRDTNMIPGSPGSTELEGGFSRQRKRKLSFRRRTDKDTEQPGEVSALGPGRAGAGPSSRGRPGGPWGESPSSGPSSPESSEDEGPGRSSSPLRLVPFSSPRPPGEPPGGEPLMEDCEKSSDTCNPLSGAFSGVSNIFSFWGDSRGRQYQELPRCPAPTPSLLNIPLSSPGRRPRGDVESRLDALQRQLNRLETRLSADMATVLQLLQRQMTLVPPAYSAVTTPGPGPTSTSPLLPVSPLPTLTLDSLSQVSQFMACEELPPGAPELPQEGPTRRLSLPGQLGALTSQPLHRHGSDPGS
compound,measurement,setting,value
CCC1=C(CC)/C(=C/NC2CCCCC2)N=C1c1ccc(C)[nH]1,CL/F,[1],0.312 mL/min/kg
same,Tmax,[2],30 h
same,log(activity),[3],3.83
same,Papp B→A at 1 h,[4],0.002 ×10⁻⁶ cm/s
same,CL/F,[5],10.8 mL/min/kg
same,Papp A→B at 1 h,[6],0.013 ×10⁻⁶ cm/s
same,Activity,[7],72%
same,Activity,[8],Dose-dependent-effect
same,Activity,[9],Non-toxic
same,half-life,[10],≥ 3.33 h
same,Activity,[11],Active; Four Mouse Cured Out Of Four
same,microsomal CLint at 1 h,[12],23.6 µL/min/mg
same,MRT last,[13],31.6 h
same,Time,[14],0 h
same,AUC(0-t),[15],1960 ng·h/mL
same,AUC,[16],68123 ng·h/mL
same,Activity,[17],Active; Four Mouse Cured Out Of Four
same,IC50,[18],16.4 nM
same,Activity,[19],88.6%
same,microsomal CLint at 1 h,[20],19.9 µL/min/mg
same,half-life,[21],≥ 3.33 h
same,%AUCextra,[22],0.5%
same,Tmax,[23],30 h
same,IC50,[24],18.4 nM
same,half-life,[25],5.07 h
same,%AUCextra,[26],0.83%
same,Activity,[27],97%
same,Survival,[28],3 days
same,Activity,[29],Non-toxic
same,MRT last,[30],31.5 h
same,IC50,[31],8.04 nM
same,AUC(0-t),[32],67600 ng·h/mL
same,Activity,[33],Non-toxic
same,AUC(0-inf),[34],1980 ng·h/mL
same,Activity,[35],100%
same,Activity,[36],Dose-dependent-effect
same,Cmax,[37],1440 ng/mL
same,half-life,[38],5.64 h
same,T99.9%,[39],39.5 h
same,IC50,[40],14.1 nM
same,half-life,[41],0.978 h
same,Activity,[42],100%
same,IC50,[43],13.9 nM
same,IC50,[44],7530 nM
same,half-life,[45],> 1 h
same,IC50,[46],4400 nM
same,IC20,"[46]; human, cho",1900 nM
same,t1/2,[47],4.5 h
same,Activity,[48],Non-toxic

# Reference: ChEMBL document CHEMBL6178021, “Optimization of Tambjamines Active against Multiple Stages of Malaria Parasites” (J Med Chem, 2025)
